Experimental findings from patent publication US20140155410A1 (GlaxoSmithKline LLC, priority 2008, published 2014) are described below.

Structures are written as SMILES.

For one test, the target named is T1, Full length Human FAK (Flag-His-TEV-FAK1) (Homo sapiens, UniProt Q05397).
T1 construct: Full length Human FAK was expressed using baculovirus in Sf9 cells; made in house; host or cells: baculovirus in Sf9 cells
T1 sequence (Q05397 whole entry): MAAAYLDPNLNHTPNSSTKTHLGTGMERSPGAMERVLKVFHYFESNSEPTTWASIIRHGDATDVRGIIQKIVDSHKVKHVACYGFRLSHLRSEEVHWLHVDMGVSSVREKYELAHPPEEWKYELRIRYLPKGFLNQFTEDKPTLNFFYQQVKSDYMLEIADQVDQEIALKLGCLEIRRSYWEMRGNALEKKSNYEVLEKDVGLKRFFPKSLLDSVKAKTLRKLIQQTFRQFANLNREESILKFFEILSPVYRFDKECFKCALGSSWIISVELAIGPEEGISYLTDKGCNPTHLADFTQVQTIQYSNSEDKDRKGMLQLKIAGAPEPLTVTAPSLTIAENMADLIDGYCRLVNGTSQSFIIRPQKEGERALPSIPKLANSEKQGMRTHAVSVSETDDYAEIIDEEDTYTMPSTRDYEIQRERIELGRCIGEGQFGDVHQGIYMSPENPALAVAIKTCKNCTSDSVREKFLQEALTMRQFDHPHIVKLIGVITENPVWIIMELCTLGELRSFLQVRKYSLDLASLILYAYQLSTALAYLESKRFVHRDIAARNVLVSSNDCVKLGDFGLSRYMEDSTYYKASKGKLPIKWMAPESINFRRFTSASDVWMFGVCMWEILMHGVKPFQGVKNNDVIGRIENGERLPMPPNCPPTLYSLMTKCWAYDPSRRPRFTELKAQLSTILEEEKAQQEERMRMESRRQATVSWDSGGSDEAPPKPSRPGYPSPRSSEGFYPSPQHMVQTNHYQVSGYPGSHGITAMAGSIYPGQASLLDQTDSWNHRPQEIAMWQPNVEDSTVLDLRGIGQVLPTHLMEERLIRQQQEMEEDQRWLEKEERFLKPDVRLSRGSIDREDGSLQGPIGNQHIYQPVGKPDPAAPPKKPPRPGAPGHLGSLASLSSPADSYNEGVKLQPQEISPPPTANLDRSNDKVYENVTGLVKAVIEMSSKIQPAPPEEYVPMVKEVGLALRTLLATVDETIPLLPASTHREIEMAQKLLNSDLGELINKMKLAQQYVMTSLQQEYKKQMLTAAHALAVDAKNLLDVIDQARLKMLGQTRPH
Description: Biochemical assay for FAK activity, Assay 2: LANCE Ultra ULight peptide phosphorylation, 665 nm/615 nm ratio. To be noted: Flag-His-TEV-FAK1, 10 μM ATP, 30 min pre-incubation. The method, then:
Flag-His-TEV-FAK1 was prepared in-house. Full length Human FAK was expressed using baculovirus in Sf9 cells with N-terminal FLAG-6×His tags followed by a TEV cleavage site (FLAG-6×His-TEV-huFAK). […] To measure inhibitors of FAK, compounds were first prepared as a 100× stock in 100% DMSO. […] After incubating for 120 minutes at room temperature, the reaction is quenched by adding 5 uL of 20 mM EDTA and 5nMEu-Anti-pTyr antibody in 1× LANCE detection buffer.
Background: In TR-FRET formats the signal depends on donor and acceptor labels being close together.
Turning to `CNC(=O)c1cccc(F)c1Nc1cc(Nc2cc(C)nn2C)ncc1Cl` [Example 75, 2-({5-Chloro-2-[(1,3-dimethyl-1H-pyrazol-5-yl)amino]-4-pyridinyl}amino)-3-fluoro-N-methylbenzamide], the “Assay 2 FAK H 31284A TRF PXC50” value was 8.3.

The same test, now with this note: Flag-His-TEV-FAK1, 10 μM ATP, 30 min pre-incubation; read-out: Assay 2 FAK H 31284A TRF PXC50 (converted).
Consider `CONC(=O)c1cc(F)ccc1Nc1cc(Nc2cc(C)nn2C(C)C)ncc1Cl` [Example 71, 2-[(5-Chloro-2-{[3-methyl-1-(1-methylethyl)-1H-pyrazol-5-yl]amino}-4-pyridinyl)amino]-5-fluoro-N-(methyloxy)benzamide], for which the IC50 was 6.31 nM.
Take `CCn1nc(COC)cc1Nc1cc(Nc2ccccc2C(=O)NC)c(Cl)cn1` [Example 60, 2-{[5-Chloro-2-({1-ethyl-3-[(methyloxy)methyl]-1H-pyrazol-5-yl}amino)-4-pyridinyl]amino}-N-methylbenzamide]: the IC50 is 12.6 nM.
With `CONC(=O)c1cc(Cl)ccc1Nc1cc(Nc2cc(C)nn2C(C)C)ncc1Cl` [Example 70], the IC50 is 6.31 nM.
On to `CCn1nc(CN(C)C)cc1Nc1cc(Nc2c(F)cccc2C(=O)NOC)c(Cl)cn1` [Example 95e, 2-{[5-Chloro-2-({3-[(dimethylamino)methyl]-1-ethyl-1H-pyrazol-5-yl}amino)-4-pyridinyl]amino}-3-fluoro-N-(methyloxy)benzamide], for which the IC50 is 158 nM.
As to `CNC(=O)c1ccc(F)cc1Nc1cc(Nc2cc(C)nn2C)ncc1Cl` [Example 87, 2-({5-Chloro-2-[(1,3-dimethyl-1H-pyrazol-5-yl)amino]-4-pyridinyl}amino)-4-fluoro-N-methylbenzamide], the IC50 is 2.51 nM.
In the case of `CNC(=O)c1ccccc1Nc1cc(Nc2cc(C)nn2C)ncc1C#N` [Example 65, 2-({5-Cyano-2-[(1,3-dimethyl-1H-pyrazol-5-yl)amino]-4-pyridinyl}amino)-N-methylbenzamide], the IC50 is 15.8 nM.
Still for that read-out and setting: under `CCn1nc(CO)cc1Nc1cc(Nc2c(F)cccc2C(=O)NC)c(C(F)(F)F)cn1` [Example 79, 2-{[2-{[1-Ethyl-3-(hydroxymethyl)-1H-pyrazol-5-yl]amino}-5-(trifluoromethyl)-4-pyridinyl]amino}-3-fluoro-N-methylbenzamide] stands 10 nM; under `CNC(=O)c1ccccc1Nc1cc(Nc2cc(C)nn2C)ncc1C(C)C` [Example 58, 2-[2-(2,5-Dimethyl-2H-pyrazol-3-ylamino)-5-isopropyl-pyridin-4-ylamino]-N-methyl-benzamide], 50.1 nM; under `CNC(=O)c1cccc(F)c1Nc1cc(Nc2cc(CCO)nn2C)ncc1Cl` [Example 89, 2-[(5-Chloro-2-{[3-(2-hydroxyethyl)-1-methyl-1H-pyrazol-5-yl]amino}-4-pyridinyl)amino]-3-fluoro-N-methylbenzamide], 10 nM.
On to `CCn1nc(CN(C)C)cc1Nc1cc(Nc2c(F)cccc2C(=O)NC)c(Cl)cn1` [Example 92, 2-{[5-Chloro-2-({3-[(dimethylamino)methyl]-1-ethyl-1H-pyrazol-5-yl}amino)-4-pyridinyl]amino}-3-fluoro-N-methylbenzamide], for which the IC50 is 501 nM.
Regarding `CCn1nc(C)cc1Nc1cc(Nc2ccccc2C(=O)NOC)c(C2CC2)cn1` [Example 56, 2-[5-Cyclopropyl-2-(2-ethyl-5-methyl-2H-pyrazol-3-ylamino)-pyridin-4-ylamino]-N-methoxy-benzamide], the IC50 was 15.8 nM.
The same measure, in the same setting: the value for `CCn1nc(C)cc1Nc1cc(Nc2c(F)cccc2C(=O)NC)c(Cl)cn1` [Example 74, 2-({5-Chloro-2-[(1-ethyl-3-methyl-1H-pyrazol-5-yl)amino]-4-pyridinyl}amino)-3-fluoro-N-methylbenzamide] was 3.16 nM; that for `CCn1nc(C)cc1Nc1cc(Nc2c(F)cccc2C(=O)NOC)c(Cl)cn1` [Example 95a, 2-({5-Chloro-2-[(1-ethyl-3-methyl-1H-pyrazol-5-yl)amino]-4-pyridinyl}amino)-3-fluoro-N-(methyloxy)benzamide] was 1.58 nM; that for `Cc1cc(Nc2cc(Nc3ccc(F)cc3C(=O)N3CCCN3)c(Cl)cn2)n(C(C)C)n1` [Example 96a, 5-Chloro-N^4-[4-fluoro-2-(1-pyrazolidinylcarbonyl)phenyl]-N^2-[3-methyl-1-(1-methylethyl)-1H-pyrazol-5-yl]-2,4-pyridinediamine] was 20000 nM.
Regarding `CNC(=O)c1ccccc1Nc1cc(Nc2cc(C)nn2C)ncc1C1CC1` [Example 53, 2-[5-Cyclopropyl-2-(2,5-dimethyl-2H-pyrazol-3-ylamino)-pyridin-4-ylamino]-N-methyl-benzamide], the IC50 was 39.8 nM.
As to `CCn1nc(CCO)cc1Nc1cc(Nc2c(F)cccc2C(=O)NC)c(C(F)(F)F)cn1` [Example 81, 2-{[2-{[1-Ethyl-3-(2-hydroxyethyl)-1H-pyrazol-5-yl]amino}-5-(trifluoromethyl)-4-pyridinyl]amino}-3-fluoro-N-methylbenzamide], the IC50 was 2 nM.
Still for that read-out and setting: under `CNC(=O)c1cccc(F)c1Nc1cc(Nc2cnn(C)c2C)ncc1Cl` [Example 76, 2-({5-Chloro-2-[(1,5-dimethyl-1H-pyrazol-4-yl)amino]-4-pyridinyl}amino)-3-fluoro-N-methylbenzamide] stands 12.6 nM.
The same measure, in the same setting: the value for `CCn1nc(CO)cc1Nc1cc(Nc2c(F)cccc2C(=O)NOC)c(Cl)cn1` [Example 95c, 2-[(5-Chloro-2-{[1-ethyl-3-(hydroxymethyl) 1H-pyrazol-5-yl]amino}-4-pyridinyl)amino]-3-fluoro-N-(methyloxy)benzamide] was 12.6 nM; that for `CONC(=O)c1ccccc1Nc1cc(Nc2cc(CO)nn2C(C)C)ncc1Cl` [Example 52, 2-[(5-Chloro-2-{[3-(hydroxymethyl)-1-(1-methylethyl)-1H-pyrazol-5-yl]amino}-4-pyridinyl)amino]-N-(methyloxy)benzamide] was 6.31 nM; that for `CCn1nc(C)cc1Nc1cc(Nc2ccc(F)cc2C(=O)NC)c(Cl)cn1` [Example 84, 2-({5-Chloro-2-[(1-ethyl-3-methyl-1H-pyrazol-5-yl)amino]-4-pyridinyl}amino)-5-fluoro-N-methylbenzamide] was 10 nM.
For `CCn1ncc(C)c1Nc1cc(Nc2ccccc2C(=O)NOC)c(Cl)cn1` [Example 50, 2-({5-Chloro-2-[(1-ethyl-4-methyl-1H-pyrazol-5-yl)amino]-4-pyridinyl}amino)-N-(methyloxy)benzamide], the IC50 was 12.6 nM.
Same read-out and setting: under `CONC(=O)c1ccccc1Nc1cc(Nc2c(C)cnn2CC(C)C)ncc1Cl` [Example 51, 2-[(5-Chloro-2-{[4-methyl-1-(2-methylpropyl)-1H-pyrazol-5-yl]amino}-4-pyridinyl)amino]-N-(methyloxy)benzamide] stands 20 nM; under `CCn1nc(C)cc1Nc1cc(Nc2cc(F)ccc2C(=O)NC)c(Cl)cn1` [Example 88, 2-({5-Chloro-2-[(1-ethyl-3-methyl-1H-pyrazol-5-yl)amino]-4-pyridinyl}amino)-4-fluoro-N-methylbenzamide], 2.51 nM; under `CONC(=O)c1cccc(F)c1Nc1cc(Nc2cnn(C)c2C)ncc1Cl` [Example 95f, 2-({5-Chloro-2-[(1,5-dimethyl-1H-pyrazol-4-yl)amino]-4-pyridinyl}amino)-3-fluoro-N-(methyloxy)benzamide], 2 nM.
Same read-out and setting: the value for `CONC(=O)c1ccccc1Nc1cc(Nc2c(C)cnn2C(C)C)ncc1Cl` [Example 49, 2-[(5-Chloro-2-{[4-methyl-1-(1-methylethyl)-1H-pyrazol-5-yl]amino}-4-pyridinyl)amino]-N-(methyloxy)benzamide] was 63.1 nM; that for `CCn1nc(C)cc1Nc1cc(Nc2ccccc2C(=O)N(C)O)c(Cl)cn1` [Example 63, 2-({5-Chloro-2-[(1-ethyl-3-methyl-1H-pyrazol-5-yl)amino]-4-pyridinyl}amino)-N-hydroxy-N-methylbenzamide] was 50.1 nM; that for `CNC(=O)c1cc(F)ccc1Nc1cc(Nc2cc(C)nn2C)ncc1Cl` [Example 83, 2-({5-Chloro-2-[(1,3-dimethyl-1H-pyrazol-5-yl)amino]-4-pyridinyl}amino)-5-fluoro-N-methylbenzamide] was 12.6 nM.
Still for that read-out and setting: under `CCn1nc(C)cc1Nc1cc(Nc2c(F)cccc2C(=O)NC)c(C(F)(F)F)cn1` [Example 77, 2-{[2-[(1-Ethyl-3-methyl-1H-pyrazol-5-yl)amino]-5-(trifluoromethyl)-4-pyridinyl]amino}-3-fluoro-N-methylbenzamide] stands 1 nM; under `CNC(=O)c1cc(F)ccc1Nc1cc(Nc2cc(C)nn2C(C)C)ncc1Cl` [Example 85, 2-[(5-Chloro-2-{[3-methyl-1-(1-methylethyl)-1H-pyrazol-5-yl]amino}-4-pyridinyl)amino]-5-fluoro-N-methylbenzamide], 63.1 nM; under `CCn1nc(CCO)cc1Nc1cc(Nc2c(F)cccc2C(=O)NC)c(Cl)cn1` [Example 90, 2-[(5-Chloro-2-{[1-ethyl-3-(2-hydroxyethyl)-1H-pyrazol-5-yl]amino}-4-pyridinyl)amino]-3-fluoro-N-methylbenzamide], 10 nM.
On to `CCn1nc(CCN2CCCC2)cc1Nc1cc(Nc2ccccc2C(=O)NC)c(Cl)cn1` [Example 46, 2-{[5-Chloro-2-({1-ethyl-3-[2-(1-pyrrolidinyl)ethyl]-1H-pyrazol-5-yl}amino)-4-pyridinyl]amino}-N-methylbenzamide], for which the IC50 was 12.6 nM.
For `[2H]C([2H])(O)c1cc(Nc2cc(Nc3c(F)cccc3C(=O)NC)c(Cl)cn2)n(CC)n1` [Example 94, 2-[(5-Chloro-2-{[1-ethyl-3-(hydroxymethyl)-1H-pyrazol-5-yl]amino}-4-pyridinyl)amino]-3-fluoro-N-methylbenzamide-d2], the IC50 is 3.98 nM.
